The values below come from patent US20070207987A1, “Androgen Modulators” (WARNER-LAMBERT COMPANY LLC, priority 2004, published 2007).

Read-outs that look alike come from different tables or passages of the source.

Series [1] deals with male Syrian hamsters. Nature of the series: Animal model for inhibition of sebum production (hamster ear). It is filed as in vivo, Syrian hamster. Particulars: five days a week, 4 weeks; for % CE reduction / % WE reduction: vs vehicle control. The procedure:
Luderschmidt et al. describes an animal model for testing whether compounds are capable of modulating sebum secretion. Arch. Derm. Res. 258, 185-191 (1977). This model uses male Syrian hamsters, whose ears contain sebaceous glands. The products of Examples 1 and 2 were screened in this model.
Testing for sebum inhibition was carried out in the following manner. Male Syrian hamsters aged 9 to 10 weeks were introduced into the laboratory environment and acclimated for 2 weeks prior to use in the study. Each group consisted of 5 animals and run in parallel with vehicle and positive controls. Prior to administration, a sufficient quantity each compound was dissolved in 1 mL of a solvent consisting of transcutol, propylene glycol, and ethanol (2/2/6 v/v/v) to achieve the final concentration described in Table III.
Animals were dosed topically twice daily, five days a week, for 4 weeks. Each dose consisted of 25 micro liters of vehicle control or drug. The dose was applied to the ventral surfaces of both the right and left ears. All animals were sacrificed approximately 18-24 hours after the final dose. The right ears were collected from each animal and used for sebum analysis.
The ears were prepped for HPLC analysis in the following manner. One 8 mm distal biopsy punch was taken, just above the anatomical “V” mark in the ear to normalize the sample area. The punch was pulled apart. The ventral biopsy surface (the area where the topical dose was directly applied to the sebaceous glands) was retained for testing and the dorsal surface of the biopsy punch was discarded.
Tissue samples were blown with N2 gas and stored at −80° C. under nitrogen until HPLC analysis. In addition to ear samples, an aliquot of each drug and vehicle (at least 250 ul) was also stored at −80° C. for inclusion in the HPLC analysis.
HPLC analysis was carried out on an extract of the tissue sample. Tissue samples were contacted with 3 ml of solvent (a 4:1 admixture of 2,2,4-trimethylpentane and isopropyl alcohol). The mixture was shaken for 15 minutes and stored overnight at room temperature, protected from light. The next morning 1 milliliter of water was added to the sample and shaken for 15 minutes. The sample was then centrifuged at approximately 1500 rpm for 15 minutes. Two ml of the organic phase (top layer) was transferred to a glass vial, dried at 37° C., under nitrogen, for approximately 1 hour, and then lyophilized for approximately 48 hours. The samples were then removed from the lyophilizer and each vial was reconstituted with 600 μl of solvent A (trimethylpentane/tetrahydrofuran (99:1). The samples were then recapped and vortexed for 5 minutes.
200 μl of each sample was then transferred to a pre-labeled 200 μl HPLC vial with 200 μL glass inserts. The HPLC vials were placed in the autosampler tray for the Agilent 1100 series HPLC unit. The Agilent 1100 HPLC system consisted of a thermostated autosampler, a quarternary pump, a column heater, and an A/D interface module. All components were controlled by Agilent ChemStation software. A Waters Spherisorb S3W 4.6×100 mm analytical column was maintained at 30° C. by the Agilent column heater unit. The HPLC autosampler was programmed to maintain the sample temperature at 20 C. throughout the run.
10 uL of each sample was injected in triplicate into the column. Two solvents were used for the solvent gradient. Solvent A was an admixture of trimethylpentane and tetrahydrofuran (99:1). Solvent B was ethylacetate. The gradient utilized is described in the table below: […]
The Sedex 75 Evaporative Light Scattering Detector (ELSD) was operated at 45° C. with a gain of 5, and N2 pressure maintained at 3.1 bar. Analog signal obtained by the instrument was sent to the Agilent A/D interface module where it was converted to a digital output. The conversion was based on a 10000 mAU/volt set point and the data rate was set at 10 Hz (0.03 min). […]

The target of series [2] is T1, hAR (Homo sapiens, UniProt P10275).
T1 construct: made in house; host or cells: baculovirus/Sf9 insect cells
T1 sequence (P10275 1-920): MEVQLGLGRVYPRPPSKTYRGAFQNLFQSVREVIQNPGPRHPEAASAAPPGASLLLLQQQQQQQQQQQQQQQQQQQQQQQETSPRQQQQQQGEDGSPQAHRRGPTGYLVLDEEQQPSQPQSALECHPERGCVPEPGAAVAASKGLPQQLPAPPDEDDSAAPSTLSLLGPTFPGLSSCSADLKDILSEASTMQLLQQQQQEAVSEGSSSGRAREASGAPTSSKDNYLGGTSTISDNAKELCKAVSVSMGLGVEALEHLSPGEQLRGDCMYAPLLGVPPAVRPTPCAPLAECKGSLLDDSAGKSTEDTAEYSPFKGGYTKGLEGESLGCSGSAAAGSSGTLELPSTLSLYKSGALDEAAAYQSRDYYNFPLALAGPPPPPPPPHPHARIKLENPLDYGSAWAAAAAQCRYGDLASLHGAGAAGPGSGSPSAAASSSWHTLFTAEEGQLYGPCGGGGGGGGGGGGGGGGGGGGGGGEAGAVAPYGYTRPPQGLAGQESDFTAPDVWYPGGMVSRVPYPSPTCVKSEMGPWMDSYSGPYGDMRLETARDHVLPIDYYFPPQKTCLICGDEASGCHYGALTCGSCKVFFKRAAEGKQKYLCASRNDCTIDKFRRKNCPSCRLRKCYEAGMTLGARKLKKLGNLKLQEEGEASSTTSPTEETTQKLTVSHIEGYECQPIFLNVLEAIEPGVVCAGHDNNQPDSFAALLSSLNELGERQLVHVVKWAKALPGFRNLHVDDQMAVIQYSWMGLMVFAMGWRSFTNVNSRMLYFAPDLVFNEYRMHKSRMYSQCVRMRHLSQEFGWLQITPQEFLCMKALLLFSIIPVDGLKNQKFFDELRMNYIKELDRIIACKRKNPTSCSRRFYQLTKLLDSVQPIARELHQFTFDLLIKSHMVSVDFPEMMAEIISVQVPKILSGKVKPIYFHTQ
The series is described as follows: Competitive binding of 3H-DHT to hAR extracts. Particulars: baculovirus/Sf9 hAR extract, 1 nM 3H-DHT, one hour at 4° C., mean of multiple tests. The procedure: The compounds of Formula I have affinity for the androgen receptor. […] The description below describes how the assay was carried out.
Competitive binding analysis was performed on baculovirus/Sf9 generated hAR extracts in the presence or absence of different concentrations of test agent and a fixed concentration of ^3H-dihydrotestosterone (^3H-DHT) as tracer. This binding assay method is a modification of a protocol previously described (Liao S., et. al. J. Steroid Biochem. 20:11-17 1984). Briefly, progressively decreasing concentrations of compounds are incubated in the presence of hAR extract (Chang et al. P.N.A.S. Vol. 89, pp. […], 1992), hydroxylapatite, and 1 nM ^3H-DHT for one hour at 4° C. Subsequently, the binding reactions are washed three times to completely remove excess unbound ^3H-DHT. hAR bound ^3H-DHT levels are determined in the presence of compounds (i.e. competitive binding) and compared to levels bound when no competitor is present (i.e. maximum binding). Compound binding affinity to the hAR is expressed as the concentration of compound at which one half of the maximum binding is inhibited. Table I below provides the results that were obtained for selected compounds (reported data is the mean of multiple tests as shown below)

Series [3] deals with androgen receptor (Homo sapiens, UniProt P10275). The series is described as follows: AR antagonist cell assay (MMTV-luciferase reporter, MDA-MB453-MMTV clone 54-19). The series is classed as cell-based. On the procedure: The compounds ability to antagonize the effects of androgen on the androgen receptor were determined in a whole cell assay as described immediately below.
Experimental Procedure for AR Antagonist Cell Assay
This cell line is a stable transfected cell line with MDA-MB453 cell background (a human breast tumor cell line expressing androgen receptor). A MMTV minimal promoter containing ARE was first cloned in front of a firefly luciferase reporter gene. Then the cascade was cloned into transfection vector pUV120puro. Electroporation method was used for transfecting MDA-MB-453 cell. Puromycin resistant stable cell line was selected.
Cell Culture Media and Reagents:
Culture medium: DMEM (high glucose, Gibco cat #: 11960-044), 10% FBS, and 1% L-glutamine
Plating medium: DMEM (phenol red free), 10% charcoal treated HyClone serum, 1% L-glutamine
Assay medium: DMEM (phenol red free), 1% charcoal treated HyClone serum, 1% L-glutamine, and 1% penicillin/streptomycin
3× luciferase buffer: 2% beta-mercaptoethanol, 0.6% ATP, 0.0135% luciferine in cell lysis buffer
• 1. Cells are maintained in culture medium, splitting cells when they reach 80-90% confluence • 2. To test compounds, 10,000 cells/well are plated to opaque 96 cell culture plate in 100 ul/well plating medium, culture for overnight at 37° C. in cell culture incubator • 3. Carefully remove plating medium, then add 80 ul/well of pre-warmed assay medium, add 10 ul/well testing compound (final concentration at) 1000 nM, 200 nM, 40 nM, 8 nM, 1.6 nM, and 0.32 nM), incubate at 37° C. for 30 minutes • 4. Add 10 ul/well freshly prepared DHT (final concentration at 100 pM) to each well, incubate at 37° C. for 17 hr (overnight) • 5.
The results are reported as the mean of multiple tests as described below (the numbers of tests are indicated in the footnote). N.D. denotes that the compound was not tested.

For series [4], the system named is patients. Particulars: after 7 years of treatment; cited from earlier work.

`CC1(C)COC(=O)[C@@H]1Oc1ccc(C#N)c(C(F)(F)F)c1` [Example 2, (R)-(+)-4-(4,4-Dimethyl-2-oxo-tetrahydro-furan-3-yloxy)-2-trifluoromethyl-benzonitrile] showed a melting point of 89.9 to 90.7 °C. In addition, in series [1] (3% w/v topical twice daily), the “Sum of WE & WE” value was determined as 171, the “% CE reduction” value is on record as 79% and the “% WE reduction” value is 92%. In series [2] (ARB (IC50)), the IC50 turned out to be 71 nM. Further, 47 nM corresponded to half-maximal inhibition in series [3] (IC50).

With `CC1(C)COC(=O)C1Oc1ccc(C#N)c(C(F)(F)F)c1` (racemic) [Example 1, (±)-4-(4,4-Dimethyl-2-oxo-tetrahydro-furan-3-yloxy)-2-trifluoromethyl-benzonitrile)], in series [1] (1% w/v topical twice daily), the “Sum of WE & WE” value amounted to 128, the “% CE reduction” value is 55% and the “% WE reduction” value came to 73%. Also, in series [2] (ARB (IC50)), the IC50 is 122 nM. Further, in series [3], the concentration for half-maximal inhibition (IC50) stood at 60 nM.

For `NCCCC(O)(P(=O)(O)O)P(=O)(O)O` [alendronate], the “Increase in spinal BMD” value in series [4] is given as at most 11%.

Consider `N#Cc1ccc(OC2CCOC2=O)cc1C(F)(F)F` (single isomer, unassigned; (-)) [Example 6, (−)-4-(2-Oxo-tetrahydro-furan-3-yloxy)-2-trifluoromethyl-benzonitrile], for which the IC50 in series [2] (read-out: ARB (IC50)) came out at 1670 nM.

Consider `N#Cc1ccc(OC2CCOC2=O)cc1C(F)(F)F` (single isomer, unassigned; (+)) [Example 5, (+)-4-(2-Oxo-tetrahydro-furan-3-yloxy)-2-trifluoromethyl-benzonitrile], for which the melting point fell in the range of 107 to 108 °C. Moreover, the IC50 in series [2] (read-out: ARB (IC50)) came to 9800 nM.

`CC1(C)COC(=O)[C@H]1Oc1ccc(C#N)c(C(F)(F)F)c1` [Example 3, (S)-(−)-4-(4,4-Dimethyl-2-oxo-tetrahydro-furan-3-yloxy)-2-trifluoromethyl-benzonitrile] displayed a melting point of 83.1 to 84.4 °C. Also, the half-maximal inhibitory concentration (IC50) in series [2] (ARB (IC50)) is over 10000 nM. The 50% inhibitory concentration (IC50) in series [3] (inhibition of induction by 100 pM DHT, 17 hr, mean of multiple tests, read-out: ARCell (IC50)) was over 1000 nM.

`N#Cc1ccc(OC2CCOC2=O)cc1C(F)(F)F` (racemic) [Example 4, (±)-4-(2-Oxo-tetrahydro-furan-3-yloxy)-2-trifluoromethyl-benzonitrile] came in with a melting point of 120 °C. Moreover, the half-inhibitory concentration (IC50) in series [2] (read-out: ARB (IC50)) was 5850 nM.
